From patent US9469653B2, “Pharmaceutical compositions for preventing or treating degenerative brain disease and method of screening the same” (KOREA INSTITUTE OF SCIENCE AND TECHNOLOGY, priority 2011, dated 2016) come the findings set out here.

In assay [1] the target is T1, human MAO-B enzyme (Homo sapiens (Human), UniProt P27338). Kind of assay: Screening of MAO-B activity inhibition (Amplex Red monoamine oxidase assay kit, benzylamine substrate). It is filed as biochemical. The following applies: 10 uM of the synthesized compound, pargyline-corrected. The protocol: A stock solution was prepared using a human MAO-B enzyme (purchased from Aldrich) and a Amplex® Red monoamine oxidase assay kit according to a preparation manual. The kit includes a 5× reaction buffer, an Amplex® red reagent (1 mg), HRP, DMSO, H2O2, p-tyramine (substrate of MAO-A, B), benzylamine (substrate of MAO-B), clorgiline (inhibitor of MAO-A), and pargyline (inhibitor of MAO-B). Among these reagents in the kit, benzylamine was used as a substrate for MAO-B, and pargyline was used as an MAO-B inhibitor. A solution as overall substrates was prepared as follows. 200 ul of a solution of 1 mg of Amplex® red sufficiently dissolved in 200 ul of DMSO, 100 ul of a mixed solution of HRP and 1 ml of a 1× buffer, 200 ul of a solution of benzylamine dissolved in 1.2 ml of dH2O were added to 9.5 ml of a 1× buffer to reach a total volume of 10 mL, which is sufficient for 100 wells. 0.5 ul of a mixture of MAO-B inhibitor pargyline and 1 ml of dH2O was put into each well. First, the activity of MAO-B was determined using 10 uM of the synthesized compound.
T1 sequence (P27338 whole entry): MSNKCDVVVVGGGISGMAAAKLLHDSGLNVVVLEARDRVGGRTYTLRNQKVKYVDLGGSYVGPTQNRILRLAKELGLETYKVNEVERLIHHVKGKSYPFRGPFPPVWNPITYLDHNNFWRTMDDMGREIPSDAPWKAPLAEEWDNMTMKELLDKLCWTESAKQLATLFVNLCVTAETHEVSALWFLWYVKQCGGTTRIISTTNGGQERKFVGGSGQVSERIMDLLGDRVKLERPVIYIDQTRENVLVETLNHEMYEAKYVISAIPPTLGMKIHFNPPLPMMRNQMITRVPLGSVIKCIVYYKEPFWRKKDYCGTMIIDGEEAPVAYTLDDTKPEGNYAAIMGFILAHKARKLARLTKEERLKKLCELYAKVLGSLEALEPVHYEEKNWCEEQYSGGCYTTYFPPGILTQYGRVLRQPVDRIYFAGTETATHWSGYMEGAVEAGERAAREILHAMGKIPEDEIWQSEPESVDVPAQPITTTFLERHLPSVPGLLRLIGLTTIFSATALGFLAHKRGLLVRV
96 wells were injected with positive and negative types, and the wile type. The positive type included only substrate and hydrogen peroxide, and the negative type included only substrate. For the wild type, corresponding wells were injected with the enzyme, substrate, and MAO-B inhibitor, but with no synthesized compound. Afterward, 2 ul of the synthesized compound (1 mM) was added into each well, and the human MAO-B enzyme was put only into the 1st row of wells. 0.5 ug of the human MAO-B was put into each well along with 100 ul of a 1× buffer. The human MAO-B enzyme was put into the 2nd row of the wells along with 0.5 ul of a pargyline, the MAO-B inhibitor. To reduce an experimental error for accuracy, the test was repeated three times for each compound. After 30 minutes, 100 ul of the substrate solution was added into each well in a darkroom. The test was performed in the darkroom due to light sensitivity of the Amplex® reagent. Finally, a total volume of the reaction solution per well reached 200 ul. After about 2 to 3 hours, chromophoric degrees of the samples were measured. A variation in data values for the 1st and 2nd rows of the wells indicates the pure reaction activity of the MAO-B enzyme with the substrate. Using the samples with the synthesized compound the remaining activity of MAO-B after inhibited by the synthesized compound may be determined. This is because the activities of the other enzymes excluding the MAO-B enzyme may be excluded through this method. Compounds with high inhibitory activity at a concentration of 10 uM were screened from among the synthesized compounds at a compound concentration of 10 uM.

Assay [2] deals with T1, human MAO-B enzyme. Described as above. The following applies: activity assay at 0.001, 0.01, 0.1, 1 and 10 uM. It counts as biochemical.

Usually IC50 stands for the midpoint of a concentration-inhibition curve. On to `Clc1ccccc1-c1nc2ccc(N3CCCCC3)nc2o1` [Example 5-39, 2-chlorophenyl-5-(piperidine-1-yl)oxazolo[5,4-b]pyridine], for which the “Remaining activity of MAO-B (%)” value on human MAO-B enzyme [1] is recorded as 0.6%. Besides, on human MAO-B enzyme [2], 13.2 µM corresponded to half-maximal inhibition (IC50).

As for `Fc1cccc(-c2nc3ccc(N4CCCCC4)nc3o2)c1` [Example 5-40, 2-(3-fluorophenyl)-5-(piperidine-1-yl)oxazolo[5,4-b]pyridine], at human MAO-B enzyme [1], the “Remaining activity of MAO-B (%)” value was found to be 13.8%. On human MAO-B enzyme [2], this molecule yielded a half-inhibitory concentration (IC50) of 0.27 µM.

With `Fc1ccc(-c2nc3ccc(N4CCCCC4)nc3o2)cc1` [Example 5-45, 2-(4-fluorophenyl)-5-(piperidine-1-yl)oxazolo[5,4-b]pyridine], the “Remaining activity of MAO-B (%)” value at human MAO-B enzyme [1] is reported as 26.5%. Further, inhibition against human MAO-B enzyme [2] was half-maximal at 10.1 µM (IC50).

Turning to `Brc1ccc(-c2nc3ccc(N4CCCCC4)nc3o2)cc1` [Example 5-47, 2-(4-bromophenyl)-5-(piperidine-1-yl)oxazolo[5,4-b]pyridine], the “Remaining activity of MAO-B (%)” value on human MAO-B enzyme [1] is 28.6%. The molecule further came in with an IC50 against human MAO-B enzyme [2] of 0.096 µM.

`COc1ccc(-c2nc3ccc(N4CCCCC4)nc3o2)cc1` [Example 5-49, 2-(4-methoxyphenyl)-5-(piperidine-1-yl)oxazolo[5,4-b]pyridine]: the “Remaining activity of MAO-B (%)” value on human MAO-B enzyme [1] is 15.8%. In addition, the midpoint of inhibition against human MAO-B enzyme [2], the IC50, lay at 1.52 µM.

For `c1ccc(CNc2ccc3nc(-c4ccccc4)sc3n2)cc1` [Example 5-58, N-benzyl-2-phenylthiazolo[5,4-b]pyridine-5-amine], the “Remaining activity of MAO-B (%)” value on human MAO-B enzyme [1] came out at 60.8%. This molecule also showed an IC50 against human MAO-B enzyme [2] of 1900 µM.

As to `CN(Cc1ccccc1)c1ccc2nc(-c3cccc(Cl)c3)oc2n1` [Example 5-67, N-benzyl-2-(3-chlorophenyl)-N-methyloxazolo[5,4-b]pyridine-5-amine], the “Remaining activity of MAO-B (%)” value at human MAO-B enzyme [1] came to 47.3%. At human MAO-B enzyme [2], this molecule came in with an IC50 of 68.2 µM.

Consider `CN(Cc1ccccc1)c1ccc2nc(-c3ccc(Cl)cc3)oc2n1` [Example 5-68, N-benzyl-2-(4-chlorophenyl)-N-methyloxazolo[5,4-b]pyridine-5-amine], for which the “Remaining activity of MAO-B (%)” value on human MAO-B enzyme [1] came to 24.1%. Also, the concentration for half-maximal inhibition (IC50) at human MAO-B enzyme [2] came to 5.08 µM.

Consider `CNc1ccc2nc(-c3ccccc3)sc2n1` [Example 5-74, N-methyl-2-phenylthiazolo[5,4-b]pyridine-5-amine], for which the “Remaining activity of MAO-B (%)” value on human MAO-B enzyme [1] is 27.2%. In addition, on human MAO-B enzyme [2], the IC50 stood at 15.7 µM.

Turning to `CNc1ccc2nc(-c3cccc(F)c3)oc2n1` [Example 5-75, 2-(3-fluorophenyl)-N-methyloxazolo[5,4-b]pyridine-5-amine], the “Remaining activity of MAO-B (%)” value on human MAO-B enzyme [1] came out at 22%. At human MAO-B enzyme [2], this molecule displayed an IC50 of 9.86 µM.

Regarding `CNc1ccc2nc(-c3cccc(Cl)c3)oc2n1` [Example 5-76, 2-(3-chlorophenyl)-N-methyloxazolo[5,4-b]pyridine-5-amine], at human MAO-B enzyme [1], the “Remaining activity of MAO-B (%)” value turned out to be 4.4%. This molecule displayed an IC50 against human MAO-B enzyme [2] of 2.99 µM.

As to `CNc1ccc2nc(-c3ccc(Cl)cc3)oc2n1` [Example 5-77, 2-(4-chlorophenyl)-N-methyloxazolo[5,4-b]pyridine-5-amine], on human MAO-B enzyme [1], the “Remaining activity of MAO-B (%)” value is listed as 4.14%. This molecule also registered an IC50 against human MAO-B enzyme [2] of 3.02 µM.
